Results as given in patent US11298314B2, “Injectable composition for localized fat reduction without pain, edema, and side effects, and method for preparing same” (AMI PHARM CO., LTD., priority 2017, dated 2022).

Key:
[1] = test system: tissues of the injected area (rat paw); assay: H&E staining histological test (inflammation) of injected rat paw; format: in vivo, Sprague Dawley rats; conditions: for Inflammation (H&E), BA % (w/v) 1.0: bile acid single composition 1.0% (w/v); for degree of inflammation (H&E) in words: rats sacrificed at 3 hours, injected paw
Protocol: The tissues of the injected area were dissected, fixed with 10% formalin, and then the specimen was prepared and images were captured using an optical microscope. The degree of inflammation was evaluated as follows.

[2] = Formulation stability of PPC injectable preparations: property, transparency, particle size, pH; conditions: for bile acid/PPC molar ratio below which a substantially stable formulation did not occur: PPC 5.0%; for bile acid concentration at which stable injectable preparations can be made: based on PPC 5.0%
paw of the rats = assay: Rat paw edema; format: in vivo, Sprague Dawley rats; conditions: for degree of edema in words: 2 hours after administration, rat paw; for degree of edema, 1 hour after administration / degree of edema, 2 hours after administration / degree of edema, Immediately after administration: 0.1 ml into rat paw
Protocol: (§1) To evaluate the degree of edema, each test compositions described above were injected into the paw of the rats. Specifically, male Sprague Dawley rats (6 weeks old) were purchased and used after one week of adaptation. The rats (body weight: 170˜200 g) were randomly selected and the thickness of the rat paw were measured with a caliper before the administration of the test compositions. In order to observe the edema, 0.1 ml of PBS and the various test compositions were administered to the paws of the rats. Measurements of the […] were performed by a caliper immediately before the injection, immediately after the injection, and 1 or 2 hours after the injection. In addition, when the thickness was measured, the skin lesion of the injection site was observed by photographing the sole of the paw (using a 4×4 cm scale).
The degree of edema was evaluated as 0 to 4 grades.

sole of the rat paws = assay: Measurement of skin lesion (erythema) on rat paw; format: in vivo, Sprague Dawley rats; conditions: for skin lesion (erythema) in words: 2 hours after administration;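 on grade of skin lesion (erythema), 1 hour after administration: grades − to ++++ mean no to extremely severe erythema versus before injection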;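 on grade of skin lesion (erythema), 2 hours after administration: grades − to ++++ mean no to extremely severe erythema versus before injection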;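 on grade of skin lesion (erythema), Immediately after administration: grades − to ++++ mean no to extremely severe erythema versus before injection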
Protocol: as §1
The grades of skin lesion were evaluated as 0 to 4 grades.

[3] = bile acid single composition 1.0% (w/v)
[4] = bile acid single composition 2.5% (w/v)
[5] = bile acid single composition 5.0% (w/v)
[6] = bile acid single composition 7.5% (w/v)

| SMILES | Inflammation (H&E), BA % (w/v) 1.0 ([1]; injected rat paw) | degree of inflammation (H&E) in words [1] | bile acid/PPC molar ratio below which a substantially stable formulation did not occur [2] | bile acid concentration at which stable injectable preparations can be made [2] | degree of edema, 1 hour after administration (paw of the rats; [3]) | degree of edema, 2 hours after administration (paw of the rats; [3]) | degree of edema, Immediately after administration (paw of the rats; [3]) | degree of edema, 1 hour after administration (paw of the rats; [4]) | degree of edema, 2 hours after administration (paw of the rats; [4]) | degree of edema, Immediately after administration (paw of the rats; [4]) | degree of edema, 1 hour after administration (paw of the rats; [5]) | degree of edema, 2 hours after administration (paw of the rats; [5]) | degree of edema, Immediately after administration (paw of the rats; [5]) | degree of edema, 1 hour after administration (paw of the rats; [6]) | degree of edema, 2 hours after administration (paw of the rats; [6]) | degree of edema, Immediately after administration (paw of the rats; [6]) | grade of skin lesion (erythema), 1 hour after administration (sole of the rat paws; [3]) | grade of skin lesion (erythema), 2 hours after administration (sole of the rat paws; [3]) | grade of skin lesion (erythema), Immediately after administration (sole of the rat paws; [3]) | grade of skin lesion (erythema), 1 hour after administration (sole of the rat paws; [4]) | other results |
| --- | --- | --- | --- | --- | --- | --- | --- | --- | --- | --- | --- | --- | --- | --- | --- | --- | --- | --- | --- | --- | --- |
| C[C@H](CCC(=O)NCC(=O)O)[C@H]1CC[C@H]2[C@@H]3CCC4C[C@H](O)CC[C@]4(C)[C@H]3C[C@H](O)[C@]12C (stereo partly drawn) [GDCA, 2-[[(4R)-4-[(3R,8R,9S,10S,12S,13R,14S,17R)-3,12-dihydroxy-10,13-dimethyl-2,3,4,5,6,7,8,9,11,12,14,15,16,17-tetradecahydro-1H-cyclopenta[a]phenanthren-17-yl]pentanoyl]amino]acetic acid] | ++ | Moderate | less than 0.87 | ≥ 2.4% | +++ (severe edema [+++, (the degree of swelling was 40-60% compared to before the injection)]) | ++ (moderate edema [++, (the degree of swelling was 20-40% compared to before the injection)]) | ++ (moderate edema [++, (the degree of swelling was 20-40% compared to before the injection)]) | +++ (severe edema [+++, (the degree of swelling was 40-60% compared to before the injection)]) | +++ (severe edema [+++, (the degree of swelling was 40-60% compared to before the injection)]) | ++ (moderate edema [++, (the degree of swelling was 20-40% compared to before the injection)]) | ++++ (extremely severe edema [++++, (the degree of swelling was 60% or more compared to before the injection)]) | ++++ (extremely severe edema [++++, (the degree of swelling was 60% or more compared to before the injection)]) | ++ (moderate edema [++, (the degree of swelling was 20-40% compared to before the injection)]) | ++++ (extremely severe edema [++++, (the degree of swelling was 60% or more compared to before the injection)]) | ++++ (extremely severe edema [++++, (the degree of swelling was 60% or more compared to before the injection)]) | ++ (moderate edema [++, (the degree of swelling was 20-40% compared to before the injection)]) | ++ | ++ | ++ | ++++ | Inflammation (H&E), BA % (w/v) 2.5 ([1]; bile acid single composition 2.5% (w/v), injected rat paw): +++; degree of edema in words (paw of the rats; listed as GDCA 1.0%): moderate; degree of edema in words (paw of the rats; listed as GDCA 2.5%): “severe” and “extremely severe”; skin lesion (erythema) in words (sole of the rat paws; listed as GDCA 1.0%): Moderate; skin lesion (erythema) in words (sole of the rat paws; listed as GDCA 2.5%): “severe” and “extremely severe”; grade of skin lesion (erythema), 2 hours after administration (sole of the rat paws; [4]): ++++; grade of skin lesion (erythema), Immediately after administration (sole of the rat paws; [4]): ++; grade of skin lesion (erythema), 1 hour after administration (sole of the rat paws; [5]): ++++; grade of skin lesion (erythema), 2 hours after administration (sole of the rat paws; [5]): ++++; grade of skin lesion (erythema), Immediately after administration (sole of the rat paws; [5]): ++; grade of skin lesion (erythema), 1 hour after administration (sole of the rat paws; [6]): ++++; grade of skin lesion (erythema), 2 hours after administration (sole of the rat paws; [6]): ++++; grade of skin lesion (erythema), Immediately after administration (sole of the rat paws; [6]): ++ |
| C[C@H](CCC(=O)NCCS(=O)(=O)O)[C@H]1CC[C@H]2C3CC[C@@H]4C[C@H](O)CC[C@]4(C)[C@H]3C[C@H](O)[C@]12C (stereo partly drawn) [TDCA, 2-[[(4R)-4-[(3R,5R,9S,10S,12S,13R,14S,17R)-3,12-dihydroxy-10,13-dimethyl-2,3,4,5,6,7,8,9,11,12,14,15,16,17-tetradecahydro-1H-cyclopenta[a]phenanthren-17-yl]pentanoyl]amino]ethanesulfonic acid] | ++ | Moderate | less than 0.74 | ≥ 2.3% | +++ (severe edema [+++, (the degree of swelling was 40-60% compared to before the injection)]) | +++ (severe edema [+++, (the degree of swelling was 40-60% compared to before the injection)]) | ++ (moderate edema [++, (the degree of swelling was 20-40% compared to before the injection)]) | +++ (severe edema [+++, (the degree of swelling was 40-60% compared to before the injection)]) | +++ (severe edema [+++, (the degree of swelling was 40-60% compared to before the injection)]) | ++ (moderate edema [++, (the degree of swelling was 20-40% compared to before the injection)]) | ++++ (extremely severe edema [++++, (the degree of swelling was 60% or more compared to before the injection)]) | ++++ (extremely severe edema [++++, (the degree of swelling was 60% or more compared to before the injection)]) | ++ (moderate edema [++, (the degree of swelling was 20-40% compared to before the injection)]) | ++++ (extremely severe edema [++++, (the degree of swelling was 60% or more compared to before the injection)]) | ++++ (extremely severe edema [++++, (the degree of swelling was 60% or more compared to before the injection)]) | ++ (moderate edema [++, (the degree of swelling was 20-40% compared to before the injection)]) | +++ | ++ | + | +++ | degree of edema in words (paw of the rats; listed as TDCA 2.5%): “severe” and “extremely severe”; skin lesion (erythema) in words (sole of the rat paws; listed as TDCA 1.0%): Moderate; skin lesion (erythema) in words (sole of the rat paws; listed as TDCA 2.5%): “severe” and “extremely severe”; grade of skin lesion (erythema), 2 hours after administration (sole of the rat paws; [4]): +++; grade of skin lesion (erythema), Immediately after administration (sole of the rat paws; [4]): ++; grade of skin lesion (erythema), 1 hour after administration (sole of the rat paws; [5]): ++++; grade of skin lesion (erythema), 2 hours after administration (sole of the rat paws; [5]): ++++; grade of skin lesion (erythema), Immediately after administration (sole of the rat paws; [5]): ++; grade of skin lesion (erythema), 1 hour after administration (sole of the rat paws; [6]): ++++; grade of skin lesion (erythema), 2 hours after administration (sole of the rat paws; [6]): ++++; grade of skin lesion (erythema), Immediately after administration (sole of the rat paws; [6]): ++ |
